Measured values as given in patent US7544814B2, “[3.2.0] Heterocyclic compounds and methods of using the same” (Nereus Pharmaceuticals, Inc., priority 2004, dated 2009).
Several values for one entry are separate records, joined by “and”; a condition that tells them apart may be missing. Identical values can stand only once. Like-named read-outs stand apart in the source and are kept apart here.

Columns and labels:
NF-κB = assay: NF-κB-mediated luciferase reporter gene assay, HEK293 NF-κB/Luc cells, TNF-α stimulation; assay type: cell-based, human; conditions: for effect on luciferase activity upon TNF-α stimulation, in words: pretreatment of NF-κB/Luc 293 cells
Description: The HEK293 NF-κB/luciferase reporter cell line is a derivative of the human embryonic kidney cell line (ATCC; CRL-1573) and carries a luciferase reporter gene under the regulation of 5× NF-κB binding sites. […] When performing the luciferase assay, the DMEM basal medium was replaced with phenol-red free DMEM basal medium and the G418 was omitted.
For NF-κB-mediated luciferase assays, HEK293 NF-κB/luciferase cells were seeded at 1.5×10^4 cells/well in 90 μl phenol-red free DMEM complete medium into Corning 3917 white opaque-bottom tissue culture plates. For Formula II-2, Formula II-4, Formula II-5A, and Formula II-18, a 400 μM starting dilution was made in 100% DMSO and this dilution was used to generate a 8-point half log dilution series. […] For Formula II-20, a 2.5 mM or 8 mM starting solution was made in 100% DMSO and the final test concentrations ranged from 6.3 μM to 2.0 nM or 20 μM to 6.3 nM, respectively. The plates were returned to the incubator for 1 hour. After 1 hr pretreatment, 10 μl of a 50 ng/ml TNF-α solution, prepared in the phenol-red free DMEM medium was added, and the plates were incubated for an additional 6 hr.
At the end of the TNF-α stimulation, 100 μl of Steady Lite HTS luciferase reagent (Packard Bioscience) was added to each well and the plates were left undisturbed for 10 min at room temperature before measuring the luciferase activity. The relative luciferase units (RLU) were measured by using a Fusion microplate fluorometer (Packard Bioscience).

[1] = molecular target: T1, trypsin-like activity of purified rabbit muscle 20S proteasome (Oryctolagus cuniculus, UniProt G1SWK8); assay: biochemical
T1 sequence (G1SWK8 1-271): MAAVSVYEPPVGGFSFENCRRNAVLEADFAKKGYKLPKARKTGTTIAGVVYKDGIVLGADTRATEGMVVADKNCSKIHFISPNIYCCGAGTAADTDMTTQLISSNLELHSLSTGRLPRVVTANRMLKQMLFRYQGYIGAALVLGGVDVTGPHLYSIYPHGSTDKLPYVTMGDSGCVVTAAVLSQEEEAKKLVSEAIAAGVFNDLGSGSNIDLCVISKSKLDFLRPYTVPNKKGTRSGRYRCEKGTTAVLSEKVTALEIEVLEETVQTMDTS

U266 = assay: Cell growth inhibition (resazurin), U266; conditions: for cytotoxicity against U266, in words: from EC50 values; for EC50: 48 hours drug exposure
RPMI 8226 = assay: Cell growth inhibition (resazurin), RPMI 8226; conditions: for cytotoxicity against RPMI 8226, in words: from EC50 values
[2] = molecular target: T2, caspase-like activity of purified rabbit muscle 20S proteasome (Oryctolagus cuniculus, UniProt A0A5F9DQW2); assay: In vitro inhibition of 20S proteasome caspase-like activity (Z-LLE-AMC)
T2 sequence (A0A5F9DQW2 1-212): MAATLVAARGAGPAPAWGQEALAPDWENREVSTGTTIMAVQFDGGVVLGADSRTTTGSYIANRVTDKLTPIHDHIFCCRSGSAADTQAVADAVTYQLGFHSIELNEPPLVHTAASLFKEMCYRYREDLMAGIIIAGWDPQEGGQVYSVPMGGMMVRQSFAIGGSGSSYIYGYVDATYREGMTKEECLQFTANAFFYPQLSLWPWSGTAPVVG

[3] = molecular target: T1, trypsin-like activity of purified rabbit muscle 20S proteasome; assay: In vitro inhibition of 20S proteasome trypsin-like activity (Boc-LRR-AMC); conditions: for inhibition of the trypsin-like activity of the 20S proteasome, in words: under the conditions tested
[4] = molecular target: T3, chymotrypsin-like activity of purified rabbit muscle 20S proteasome (Oryctolagus cuniculus, UniProt G1T4Q9); assay: In vitro inhibition of 20S proteasome chymotrypsin-like activity (suc-LLVY-AMC)
T3 sequence (G1T4Q9 1-263): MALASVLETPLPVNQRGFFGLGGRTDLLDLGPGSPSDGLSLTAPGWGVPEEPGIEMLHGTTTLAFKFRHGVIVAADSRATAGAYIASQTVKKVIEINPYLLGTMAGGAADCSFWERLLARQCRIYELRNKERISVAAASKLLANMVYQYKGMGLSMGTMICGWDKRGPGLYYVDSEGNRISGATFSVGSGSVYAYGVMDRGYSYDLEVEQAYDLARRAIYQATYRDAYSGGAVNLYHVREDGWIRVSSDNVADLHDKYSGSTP

[5] = Homo sapiens, HEK293, read-out: EC50, NF-κB-mediated luciferase reporter gene assay, Table 5, values in nM, 1 hr pretreatment, TNF-α 6 hr
[6] = Homo sapiens, HEK293, read-out: EC50, NF-κB-mediated luciferase reporter gene assay, Table 5, values in μM, 1 hr pretreatment, TNF-α 6 hr
[7] = Homo sapiens, RPMI-8226, 48 h, read-out: RPMI 8226 EC50, Table 2, 48 hours drug exposure, mean ± SD where n≥3
[8] = read-out: RPMI 8226 EC50, Table 2, 48 hours drug exposure, mean ± SD where n≥3
[9] = EC50 Caspase-like, Table 6, values in μM
[10] = EC50 values, caspase-like activity, range in mixed units, summary of Table 6, range from nM to μM
[11] = EC50 Chymotrypsin-like, Table 6, values in nM
[12] = EC50 values, chymotrypsin-like activity, summary of Table 6
[13] = Homo sapiens, HEK293, Table 5, values printed in μM, 1 hr pretreatment, TNF-α 6 hr, read-out: EC50, NF-κB-mediated luciferase reporter gene assay
[14] = Table 5, values in μM, 1 hr pretreatment, TNF-α 6 hr, read-out: EC50, NF-κB-mediated luciferase reporter gene assay
[15] = Homo sapiens, U-266, 48 h, read-out: U266 EC50, Table 2
[16] = EC50 Chymotrypsin-like, Table 6, values in μM
[17] = EC50 values, chymotrypsin-like activity, range or bound stated in text, summary of Table 6

Row | SMILES | effect on luciferase activity upon TNF-α stimulation, in words (NF-κB) | EC50 [1] | EC50 (RPMI 8226; [7]) | cytotoxicity against RPMI 8226, in words (RPMI 8226) | EC50 (RPMI 8226; [8]) | EC50 [2, 9] | inhibition of the trypsin-like activity of the 20S proteasome, in words [3] | EC50 [4, 11] | EC50 [4, 12] | further results
1 | CCC(=O)OCC[C@H]1C(=O)N[C@@]2([C@@H](O)[C@@H]3C=CCCC3)C(=O)O[C@@]12C [Formula II-22] | dose-dependent decrease | 289 nM | 9720 nM | cytotoxic | 11200 nM | 1.3 µM and 1.4 µM | able to inhibit | 7 nM and 3 nM | 2 to 11 nM | EC50 (NF-κB; [5]): 728 nM; EC50 (NF-κB; [6]): 1000 nM; cytotoxicity against U266, in words (U266): cytotoxic; EC50 [2, 10]: 0.956 to 8.7 µM
2 | COC(=O)C(CSC(=O)[C@]1([C@@H](O)[C@@H]2C=CCCC2)NC(=O)[C@H](CCCl)[C@]1(C)O)NC(C)=O (stereo partly shown) [Formula II-50] | – | – | 10 nM | cytotoxic | – | – | – | – | – | –
3 | C[C@@]12OC(=O)[C@]1([C@@H](O)[C@@H]1C=CCCC1)NC(=O)[C@@H]2CCO [Formula II-21] | dose-dependent decrease | 879 nM | > 20000 nM | – | – | 2.6 µM and 2.3 µM | able to inhibit | 8 nM | 2 to 11 nM | EC50 (NF-κB; [13]): 3200 nM; EC50 (NF-κB; [14]): 2700 nM; EC50 (NF-κB; Table 12, read-out: NF-κB EC50): 2710 nM; EC50 (U266; [15]): 6090 nM; cytotoxicity against U266, in words (U266): cytotoxic; EC50 (U266; read-out: U266 EC50, Table 2): 9670 nM; EC50 (RPMI 8226; Homo sapiens, RPMI-8226, read-out: Cytotoxicity RPMI EC50, Table 12): > 20000 nM; EC50 [2, 10]: 0.956 to 8.7 µM; EC50 ([2]; Proteasome Caspase-like EC50, Table 12): 2.58 µM and 2.33 µM; EC50 ([3]; read-out: Proteasome Trypsin-like EC50, Table 12): 879 nM; EC50 ([4]; Proteasome Chymotrypsin-like EC50, Table 12): 8 nM
4 | C[C@@]12OC(=O)[C@]1([C@@H](O)[C@@H]1C=CCCC1)NC(=O)[C@@H]2CCN=C=S [Formula II-38] | – | – | 2600 nM | cytotoxic | 1800 nM | – | – | 3.4 ± 0.2 nM | 2 to 11 nM | –
5 | COC(=O)CCSC(=O)[C@]1([C@@H](O)[C@@H]2C=CCCC2)NC(=O)[C@H](CCCl)[C@]1(C)O [Formula II-44] | dose-dependent decrease | 55 nM and 54 nM | 12 nM | cytotoxic | 8.8 nM | 1.4 µM | able to inhibit | 11 nM and 8.7 nM | 2 to 11 nM | EC50 (NF-κB; [5]): 17 ± 4 nM; EC50 [2, 10]: 0.956 to 8.7 µM
6 | CC[C@@H]1C(=O)N[C@@]2([C@@H](O)[C@@H]3C=CCCC3)C(=O)O[C@@]12C [Formula II-27] | – | > 20000 nM | – | – | – | – | – | – | – | EC50 (NF-κB; [13]): > 20000 nM
7 | CC12OC(=O)C1(CC1C=CCCC1)NC(=O)C2CCCl (stereo not shown) [Formula I-7] | – | – | 240 nM | cytotoxic | 250 nM | – | – | 52 ± 2 nM | 13 to 88 nM | –
8 | C[C@@]12OC(=O)[C@]1([C@@H](O)[C@@H]1C=CCCC1)NC(=O)[C@@H]2CCN=[N+]=[N-] [Formula II-29] | dose-dependent decrease | 175 nM and 254 nM | 4280 nM | cytotoxic | 6940 nM | – | able to inhibit | 6 nM and 8 nM | 2 to 11 nM | EC50 (NF-κB; [6]): 1200 nM; EC50 (NF-κB; read-out: EC50, NF-κB-mediated luciferase reporter gene assay, Table 5, values in μM, 1 hr pretreatment, TNF-α 6 hr): 1400 nM; cytotoxicity against U266, in words (U266): cytotoxic; EC50 ([2]; EC50 Caspase-like, Table 6, values in nM): 0.535 µM and 0.52 µM; EC50 ([2]; EC50 values, caspase-like activity, summary of Table 6): 0.213 to 0.85 µM
9 | CC12OC(=O)C1(C(=O)C1C=CCCC1)NC(=O)C2CCCl (stereo not shown) [Formula II-13C] | – | 8600 nM and 12800 nM | – | – | – | > 20 µM | able to inhibit | – | – | EC50 [4, 16]: 7600 nM and 8800 nM; EC50 [4, 17]: 1400 to 10600 nM
10 | C[C@@]12OC(=O)[C@]1(C(=O)C1=CC(O)CCC1)NC(=O)[C@]2(C)CCCl (stereo partly shown) [Formula II-32] | – | – | – | – | > 20000 nM | – | – | – | – | –
11 | C[C@@]12OC(=O)[C@]1([C@@H](O)[C@@H]1C=CCCC1)NC(=O)[C@H]2CCCl [Formula II-26] | dose-dependent decrease | – | 2230 nM | cytotoxic | 1610 nM | – | able to inhibit | – | – | EC50 (NF-κB; [13]): 4300 nM; EC50 (NF-κB; [14]): 4100 nM; cytotoxicity against U266, in words (U266): cytotoxic; EC50 (U266; read-out: U266 EC50, Table 2): 829 nM
12 | C[C@@]12OC(=O)[C@]1(C(=O)C1=CC(O)CCC1)NC(=O)[C@]2(C)CCCl (stereo partly shown) [Formula II-31] | – | – | > 20000 nM | – | – | – | – | – | – | –
13 | CC[C@H]1C(=O)N[C@](C(=O)SCCC(=O)OC)([C@@H](O)[C@@H]2C=CCCC2)[C@@]1(C)O [Formula II-47] | – | – | 8000 ± 3400 nM | cytotoxic | – | – | – | 50 ± 10 nM | 13 to 88 nM | –
14 | COC(=O)CCSC(=O)C1(C(O)C2C=CCCC2)NC(=O)C2CCOC21C (stereo not shown) [Formula VI-1A] | – | 3100 nM and 3000 nM | 8400 nM | cytotoxic | 7800 nM | 7.9 µM and 8.7 µM | able to inhibit | 274 nM and 207 nM | 207 to 964 nM | EC50 (NF-κB; [6]): > 20000 nM; EC50 [2, 10]: 0.956 to 8.7 µM
15 | C[C@@]12OC(=O)[C@]1(C(O)[C@@H]1C=CCCC1)NC(=O)[C@@H]2CCCl (single isomer, unassigned) [Formula II-25] | – | – | > 20000 nM | – | – | – | – | – | – | EC50 (NF-κB; [13]): > 20000 nM; EC50 (U266; [15]): > 20000 nM
16 | C[C@@H]1C(=O)N[C@@]2([C@@H](O)[C@@H]3C=CCCC3)C(=O)O[C@@]12C [Formula II-28] | – | > 20000 nM | > 20000 nM | – | – | > 20 µM | – | – | – | EC50 (NF-κB; [6]): > 20000 nM; EC50 (U266; [15]): > 20000 nM; EC50 [4, 16]: 3200 nM and 3300 nM; EC50 [4, 17]: 1400 to 10600 nM
